In PMC7832312, “Enhancing the Physiochemical Properties of Puerarin via L-Proline Co-Crystallization: Synthesis, Characterization, and Dissolution Studies of Two Phases of Pharmaceutical Co-Crystals” (International Journal of Molecular Sciences, 2021):

How the values were obtained:
[1] = tested on: HEK-293 cell lines; experiment: Cytotoxicity evaluation by MTT assay, HEK-293; assay type: cell-based, human; conditions: HEK-293, culturing 24 h
Method: (§1) CT-26 and HEK-293 cell line was purchased from American Type Culture Collection (Manassas, VA, USA). The cell lines were cultured in RPMI 1640 (for CT-26) or DMEM (for HEK-293) containing 10% fetal bovine serum (FBS, Zhejiang Tianhang Biotechnology Co. Ltd., Hangzhou, China) and 1% penicillin/streptomycin (Zhejiang Tianhang Biotechnology Co. Ltd., Hangzhou, China). Cells grew as a monolayer and were detached upon confluence using trypsin (0.5% w/v in PBS, Zhejiang Tianhang Biotechnology Co. Ltd., Hangzhou, China). The cells were harvested from the cell culture medium by incubating in trypsin solution for 3 min. The cells were centrifuged, and the supernatant discarded. A 3 mL portion of serum-supplemented cell culture medium was added to neutralize any residual trypsin. The cells were re-suspended in serum-supplemented RPMI 1640 (for CT-26) or DMEM (for HEK-293) at a concentration of 5 × 10^4 cells per 1 mL. Cells were cultured at 37 °C and 5% CO2 for MTT studies.
(§2) The CT-26 or HEK-293 cells were seeded at a density of 1 × 10^4 cells per well in 100 µL of complete RPMI 1640 (CT-26) or DMEM (for HEK-293), and cultured for 16 h for attachment. The culture medium was then replaced by a serum-free medium containing various concentrations of pristine PUE, I, and II. […] After incubating the cells at 37 °C for 4 h, the MTT solution was removed and DMSO (100 μL) added to dissolve the formazan crystals formed, and the microplates were agitated for 5 min at a medium rate before the spectrophotometric measurement at a wavelength of 570 nm on a microplate reader. […] The relative cell viability (%) related to control cells was calculated by the formula below: V%=[A]experimental−[A]blank/[A]control−[A]blank×100% where V% is the percentage of cell viability, [A]experimental is the absorbance of the wells culturing the treated cells, [A]blank is the absorbance of the blank, and [A]control is the absorbance of the wells culturing untreated cells.

[2] = tested on: CT-26 cancer cell lines; experiment: Cytotoxicity evaluation by MTT assay, CT-26; assay type: cell-based, murine; conditions: CT-26, culturing 24 h
Method: as §1, §2

[3] = Dissolution rate measurement (UV, 250 mL medium, 150 RPM, 2 h, 37 °C); assay type: physicochemical; conditions: 37 °C
Method: The solubility and dissolution studies of pure PUE, I, and II were measured using a Thermo Scientific Evolution 300 UV spectrometer in deionized water at pH 7.0, gastrointestinal tract at pH 1.2, and phosphate buffer at pH 6.8 solution at 37 °C. The concentration was calculated utilizing a standard curve, which was made by measuring the absorbance of different concentrations at their λmax. A superfluity sum of the sample was added to 10 mL of H2O medium, pH 1.2 and pH 6.8 phosphate, respectively.
The oversaturated solution was stirred at 500 RPM by magnetic stirring at 37 °C for 24 h and the suspension was filtered through Whatman’s […] syringe channel, diluted sufficiently and the absorbance was measured at their λmax. For the dissolution rate, the sample was specifically poured into 250 mL pH 7.0 water, pH 1.2 gastrointestinal tract, and pH 6.8 phosphates medium and then stirred at 150 RPM for 2h at 37 °C. Each solution was measured by the absorbance at λmax. At customary interims, the solution was replenished with 3 mL of the respective blank solution to maintain an overall steady volume.

In the case of O=C(O)[C@@H]1CCCN1.O=c1c(-c2ccc(O)cc2)coc2c([C@@H]3O[C@H](CO)[C@@H](O)[C@H](O)[C@H]3O)c(O)ccc12 [I, [PUE][PRO]], the “cytotoxicity (MTT cell viability)” value [1] is reported as “negligible cytotoxicity”, the “cytotoxicity (MTT cell viability)” value [2] is reported as “negligible cytotoxicity” and the Time-dependent dissolution rate ([3]; Water, 5 min) is reported as 0.220 mg/mL. It also gave a Time-dependent dissolution rate ([3]; Water, 10 min) of 0.343 mg/mL, a Time-dependent dissolution rate ([3]; Water, 15 min) of 0.452 mg/mL and a Time-dependent dissolution rate ([3]; Water, 20 min) of 0.533 mg/mL. It also gave a Time-dependent dissolution rate ([3]; Water, 25 min) of 0.591 mg/mL, a Time-dependent dissolution rate ([3]; Water, 30 min) of 0.674 mg/mL and a Time-dependent dissolution rate ([3]; Water, 40 min) of 0.767 mg/mL. The Time-dependent dissolution rate ([3]; Water, 50 min) was 0.945 mg/mL, the Time-dependent dissolution rate ([3]; Water, 60 min) was 1.045 mg/mL and the Time-dependent dissolution rate ([3]; Water, 80 min) was 1.373 mg/mL. For the same compound, the Time-dependent dissolution rate ([3]; Water, 100 min) was 1.503 mg/mL, the Time-dependent dissolution rate ([3]; Water, 120 min) was 1.645 mg/mL and the Time-dependent dissolution rate ([3]; pH 1.2, 5 min) was 0.013 mg/mL. It also gave a Time-dependent dissolution rate ([3]; pH 1.2, 10 min) of 0.035 mg/mL, a Time-dependent dissolution rate ([3]; pH 1.2, 15 min) of 0.122 mg/mL and a Time-dependent dissolution rate ([3]; pH 1.2, 20 min) of 0.192 mg/mL. For the same compound, the Time-dependent dissolution rate ([3]; pH 1.2, 25 min) was 0.249 mg/mL, the Time-dependent dissolution rate ([3]; pH 1.2, 30 min) was 0.356 mg/mL and the Time-dependent dissolution rate ([3]; pH 1.2, 40 min) was 0.588 mg/mL. The Time-dependent dissolution rate ([3]; pH 1.2, 50 min) was 0.711 mg/mL, the Time-dependent dissolution rate ([3]; pH 1.2, 60 min) was 0.958 mg/mL and the Time-dependent dissolution rate ([3]; pH 1.2, 80 min) was 1.159 mg/mL. For the same compound, the Time-dependent dissolution rate ([3]; pH 1.2, 100 min) was 1.383 mg/mL, the Time-dependent dissolution rate ([3]; pH 1.2, 120 min) was 1.603 mg/mL and the Time-dependent dissolution rate ([3]; pH 6.8, 5 min) was 0.207 mg/mL. It also gave a Time-dependent dissolution rate ([3]; pH 6.8, 10 min) of 0.291 mg/mL, a Time-dependent dissolution rate ([3]; pH 6.8, 15 min) of 0.384 mg/mL and a Time-dependent dissolution rate ([3]; pH 6.8, 20 min) of 0.493 mg/mL. The Time-dependent dissolution rate ([3]; pH 6.8, 25 min) was 0.570 mg/mL, the Time-dependent dissolution rate ([3]; pH 6.8, 30 min) was 0.664 mg/mL and the Time-dependent dissolution rate ([3]; pH 6.8, 40 min) was 0.786 mg/mL. The Time-dependent dissolution rate ([3]; pH 6.8, 50 min) was 0.850 mg/mL, the Time-dependent dissolution rate ([3]; pH 6.8, 60 min) was 0.918 mg/mL and the Time-dependent dissolution rate ([3]; pH 6.8, 80 min) was 1.183 mg/mL. For the same compound, the Time-dependent dissolution rate ([3]; pH 6.8, 100 min) was 1.265 mg/mL and the Time-dependent dissolution rate ([3]; pH 6.8, 120 min) was 1.303 mg/mL.
